{
  "source": "patent US10092586B2",
  "about": "“Glycolipid containing compositions for use in the treatment of tumors” (Agalimmune Limited (GB/GB), priority 2014, dated 2018)",
  "key": {"CHO-K1 cells [1]": {"test_system": "CHO-K1 cells", "test": "Complement dependent cell cytotoxicity/cell lysis (CDC) assay", "assay_type": "cell-based", "procedure": "The assays below quantify both the amount of α-Gal BOEL inserted into the cell plasma membranes and the functional impact of α-Gal BOEL insertion in stimulating anti-Gal mediated complement-dependent cytotoxicity (CDC). α-Gal BOEL is titrated and incubated with CHO-K1 cells. These cells are either fixed and used in a whole cell ELISA assay, to determine incorporation of α-Gal into membranes, or incubated with anti-Gal antibody and human serum to measure CDC (or general cytotoxicity in the absence of complement from human serum).\n(§1) α-Gal BOEL is titrated as follows. One 40 μl aliquot of α-Gal BOEL (2 mg/ml (obtained from Sigma as FSL-Galili(tri)™, Catalogue No. F9432)) is thawed and sonicated for 30 seconds. 40 μl of phosphate buffered saline (PBS) is added to the tube and vortexed for 10 seconds. 25 μl of this mix is added to 55 μl of PBS and mixed well. These dilutions are repeated to give a full titration of α-Gal BOEL in the desired concentration range.\nCHO-K1 cells, which lack α-Gal epitopes, are resuspended in Dulbecco's PBS (DPBS) at 37° C. and centrifuged at 1000 rpm for 5 minutes. […]\n(§2) An aliquot of the cell suspension (45 μl) is transferred to all tubes of α-Gal BOEL and mixed gently by inversion and incubated for 30 minutes at 37° C. […] The cell suspension (25 μl) is transferred either to an assay plate (standard white 96-well plate for luminescence readout (available from Corning)) to perform the CDC assay (A) or 50 μl transferred to a poly-d-lysine coated plate (available from Sigma) for the in-cell ELISA (B) to measure incorporation into cell membranes.\nAnti-Gal antibody (from a range of sources, mouse anti-Gal containing plasma in this example) is added (25 μl/well) to the CDC assay plate (A) and then incubated for 30 minutes at 37° C. […] The human serum (containing active complement) is diluted in warm media (to a pre-determined level by titration in the assay) and 50 μl added to each well. […] This reagent luminescence is proportional to the […]. […] Luminescence output is measured using a standard 96-well plate reader (see FIG. 3)."}, "B16-F10 cells": {"test_system": "B16-F10 cells", "test": "Complement deposition assay (flow cytometry), mouse serum", "assay_type": "cell-based", "conditions": "B16 mouse melanoma cells, 500 μg/ml, 2.5% mouse serum", "procedure": "(§3) 1×10^6 B16-F10 and CHO-K1 cells were harvested from growing cultures and incubated with 500 μg/ml αGal BOEL in PBS for 1 hour at 37° C., after which the cells were washed 3 times with PBS. After washing the CHO-K1 cells were incubated with either 2.5% normal (NHS) or heat-inactivated (HI NHS) human serum for 10 minutes at 37° C. The B16-F10 cells were incubated with either 2.5% serum from normal GT−/− mice (NMS) or 2.5% serum from pig kidney homogenate immunised mice (I NMS) for 10 minutes at 37° C. The cells were placed on ice and washed twice with ice-cold cell staining buffer (PBS+0.1% BSA). The cells were incubated with either anti-C3b (C3b, Pierce MAI-70054, diluted 1:1000 in cell staining buffer) or anti-SC5b-9 (MAC, Quidel A239, diluted 1:100 in cell staining buffer) for 30 minutes on ice. The cells were washed twice with ice cold cell staining buffer and incubated with FITC goat anti-mouse IgG (Abcam ab97022, diluted 1:2000 in cell staining buffer) for 30 minutes on ice. After 2 further washes with ice-cold cell staining buffer the cells were resuspended in ice-cold cell staining buffer plus 7-AAD (Biolegend 420403). The cells were analysed using a Beckman Coulter Cytomics FC500 flow cytometer, with data captured in the FL-1 channel. Data on the histograms presented are gated on live cells."}, "B16-F10 melanoma cells": {"test_system": "B16-F10 melanoma cells", "test": "GT KO mouse melanoma model, distal tumour development", "assay_type": "in vivo", "procedure": "FIG. 7: Dose titration experiments with α-Gal BOEL. Anti-Gal producing GT KO mice were injected with 1×10^6 B16-F10 melanoma cells for primary tumour growth on their right flanks and 1×10^4 B16-F10 cells for secondary/distal tumour injection on the opposite flank. 5 days later, the main tumours were intra-tumourally treated with PBS (open circles), or 0.1 mg α-Gal BOEL (open triangles), or 0.5 mg α-Gal BOEL (closed triangles), or 1 mg of α-Gal BOEL (closed circles). The development of visible distal tumours as model for metastases development was followed for up to 32 days. The percentages of mice without visible distal tumours are plotted in the graphs. Statistical differences between the groups were determined by log-rank test.\nFIG. 8: α-Gal BOEL activity in anti-Gal producing mice (i.e mice immunized with pig kidney membranes) or mice lacking anti-Gal (i.e. non-immunized mice). Hyper-immunized or non-immunized GT KO mice were injected with 1×10^6 B16-F10 cells for primary tumour growth on their right flanks and either 1×10^4 B16-F10 cells for secondary/distal tumour injection on the opposite flank. 4 days later, the main tumours were intra-tumourally treated with PBS in hyper-immunized mice (open circles), or 1 mg α-Gal BOEL (closed circles for hyper-immunized mice; open squares for non-immunized mice). The development of visible distal tumours as model for metastases development was followed for up to 28 days. The percentages of mice without visible distal tumours are plotted in the graph. Statistical differences between the groups were determined by log-rank test.\nIn vivo pharmacodynamics experiments were conducted to assess the effects of α-Gal BOEL in a GT KO mouse melanoma model with B16-F10 melanoma cells. […] As a result, the GT KO mice can be immunized with pig kidney membrane homogenate to produce titers of IgG and IgM anti-Gal antibodies that are similar to those seen naturally in humans. Such an immune response is induced since pig kidney membranes contain a high concentration of α-Gal epitopes on cell membranes and in intercellular matrix.\nIn the B16-F10 melanoma model, mice were injected with cultured B16-F10 cells on both flanks, on one side they were injected with 1×10^6 melanoma cells to create a primary tumour and with a reduced cell number on the contra-lateral flank (1×10^4 melanoma cells) to create a model of a ‘distant metastasis’ also referred to as secondary tumour. Primary tumours are injected intratumourally with α-Gal BOEL or vehicle control when a predefined tumour diameter is reached. The critical endpoint recorded is growth of the ‘distant’ tumour; this is used to measure the ability of an agent to elicit an effective protective anti-tumour immune response throughout the body. Doses from 0.1-2.5 mg of α-Gal BOEL were tested."}, "CHO-K1 cells [2]": {"test_system": "CHO-K1 cells", "test": "Complement deposition assay (flow cytometry), human serum", "assay_type": "cell-based", "conditions": "500 μg/ml, 2.5% human serum", "procedure": "as §3"}, "CHO-K1 cells [3]": {"test_system": "CHO-K1 cells", "test": "General cellular toxicity (CDC procedure without human serum)", "assay_type": "cell-based", "conditions": "absence of human serum; up to 500 μg/ml; CellTitreGlo", "procedure": "as §1\n(§4) CHO-K1 cells, which lack α-Gal epitopes, are resuspended in Dulbecco's PBS (DPBS) at 37° C. and centrifuged at 1000 rpm for 5 minutes. The supernatant is aspirated and the cell pellet resuspended to 1×10^7 cells/ml in 450 μl DPBS (37° C.). The cell pellet is washed again to remove all traces of serum.\nas §2, with “membranes. […]” for “membranes.”\nGeneral cellular toxicity was measured by following the CDC assay procedure above but replacing human serum with pre-warmed media. […]"}, "[4]": {"test_system": "monoclonal mouse anti-Gal IgM (M86 hybridoma supernatant)", "test": "ELISA to demonstrate binding to anti-Gal antibodies", "conditions": "α-Gal BOEL dried in ELISA wells, serial dilution from 2 mg/ml", "procedure": "A 96-well plate is first coated with α-Gal BOEL (obtained from Sigma as FSL-Galili(tri)™, Catalogue No. F9432). 50 μL PBS is added to each well. α-Gal BOEL is resuspended in PBS to a concentration of 2 mg/ml and 50 μL added to a well. Serial dilutions are performed by transferring 50 μL into wells across the plate making sure that each well is thoroughly mixed before transfer. The plate is left overnight to dry.\n150 μL of blocking buffer (1×PBS/1% BSA) is added to the dry wells. The plate is covered and incubated at 37° C. for 2 hours. The well contents are discarded and the wells washed with PBS. 50 μL of the primary anti-Gal antibody (monoclonal mouse anti-Gal IgM in this example, M86 hybridoma supernatant) is added to each well. The plate is incubated at room temperature for 2 hours. The plate is washed 3 times with 200 μL washing buffer (1×PBS, 0.05% Tween).\n50 μL of secondary goat anti-mouse IgM-HRP solution (Accurate Chemical; Catalogue No. JGM035020) is added to each well. The plate is covered and incubated at room temperature for 1 hour and then is washed 3 times with 200 μL washing buffer. 100 μL of a standard OPD (o-Phenylenediamine dihydrochloride) solution (e.g. Sigma; Catalogue No. P8287) is added to each well, incubated for 5 minutes and then 50 μL of stop solution (1 M sulfuric acid) is added. The well absorbances are immediately read at 492 nm (A492) (see FIG. 2)."}, "CHO-K1 cells [5]": {"test_system": "CHO-K1 cells", "test": "In-cell ELISA to measure incorporation of α-Gal BOEL into cells", "assay_type": "cell-based", "conditions": "CHO-K1 cells incubated 30 minutes at 37° C.; M86 primary antibody", "procedure": "as §1, §4\nas §2, with “membranes. […]” for “membranes.”\n100 μL/well of TMB Substrate is added the plate incubated at room temperature, protected from light. […] The absorbance at 450 nm is measured within 30 minutes of stopping the reaction (see FIG. 5)."}},
  "note": "Values joined by “and” are separate entries in the source; they are usually repeats but may differ in a detail not shown here. Identical values can stand only once. Like-named read-outs stand apart in the source and are kept apart here.",
  "data": [
    {"smiles": "CCCCCCCC/C=C\\CCCCCCCC(=O)OC[C@H](COP(=O)(O)OCCNC(=O)CCCCC(=O)NCCCO[C@@H]1OC(CO)[C@@H](O[C@@H]2OC(CO)[C@H](O)[C@H](O[C@H]3OC(CO)[C@H](O)[C@H](O)C3O)C2O)[C@H](O)C1NC(C)=O)OC(=O)CCCCCCC/C=C\\CCCCCCCC", "note": "(stereo partly drawn) [α-Gal BOEL, (9Z,9′Z)-(2R)-3-(((2-(6-((3-(((2R,3R,4R,5S,6R)-3-acetamido-5-(((2S,3R,4S,5S,6R)-3,5-dihydroxy-6-(hydroxymethyl)-4-(((2R,3R,4S,5R,6R)-3,4,5-trihydroxy-6-(hydroxymethyl)tetrahydro-2H-pyran-2-yl)oxy)tetrahydro-2H-pyran-2-yl)oxy)-4-hydroxy-6-(hydroxymethyl)tetrahydro-2H-pyran-2-yl)oxy)propyl)amino)-6-oxohexanamido)ethoxy)(hydroxy)phosphoryl)oxy)propane-1,2-diyl bis(octadec-9-enoate)]", "values": [
      {"measurement": "EC50", "setting": "CHO-K1 cells [1]; Cricetulus griseus, CHO-K1, inhibition of CDC, CHO-K1 cells, mouse anti-Gal plasma, human serum, CellTiterGlo, single independent experiment, read-out: EC50", "value": 1.36, "unit": "µg/mL"},
      {"measurement": "EC50", "setting": "CHO-K1 cells [1]; Cricetulus griseus, CHO-K1, inhibition of CDC, over 4 independent experiments, read-out: Geomean / mean EC50", "value": 1.35, "unit": "µg/mL"},
      {"measurement": "EC50", "setting": "CHO-K1 cells [1]; inhibition of CDC, CHO-K1 cells, mouse anti-Gal plasma, human serum, CellTiterGlo, single independent experiment", "value": "1.24 µg/mL and 1.38 µg/mL and 1.43 µg/mL"},
      {"measurement": "deposition of complement protein C3b", "setting": "B16-F10 cells", "value": "leads to the deposition"},
      {"measurement": "deposition of complement protein MAC", "setting": "B16-F10 cells", "value": "leads to the deposition"},
      {"measurement": "mice protected from secondary tumour development", "setting": "B16-F10 melanoma cells; 1 mg intratumoural, anti-Gal producing (immunized) GT KO mice, up to 28 days", "value": 80, "unit": "%"},
      {"measurement": "degree of protection versus 0.1-mg and 0.5-mg doses", "setting": "B16-F10 melanoma cells; 1 mg intratumoural, anti-Gal producing GT KO mice, up to 32 days", "value": "higher degree of protection"},
      {"measurement": "protective activity against secondary tumour development", "setting": "B16-F10 melanoma cells; 1 mg intratumoural, non-immunized GT KO mice (lacking anti-Gal)", "value": "lacked protective activity"},
      {"measurement": "activity response across doses (protection from distal tumour)", "setting": "B16-F10 melanoma cells; 0.1-mg to 1-mg intratumoural doses in 100 μL vehicle, side-by-side, anti-Gal producing GT KO mice", "value": "dose-dependent activity response"},
      {"measurement": "deposition of complement protein C3b", "setting": "CHO-K1 cells [2]", "value": "leads to the deposition"},
      {"measurement": "deposition of complement protein MAC", "setting": "CHO-K1 cells [2]", "value": "leads to the deposition"},
      {"measurement": "impact on cell viability / overt cytotoxicity", "setting": "CHO-K1 cells [3]", "value": "no impact on cell viability"},
      {"measurement": "binding of monoclonal anti-Gal antibody (A492)", "setting": "[4]", "value": "binds to α-Gal epitopes on the α-Gal BOEL molecules"},
      {"measurement": "incorporation into cells (absorbance at 450 nm)", "setting": "CHO-K1 cells [5]", "value": "can be detected on the surface of CHO-K1 cells"}
    ]}
  ]
}
